Tests used:
Test in all cases: relative viability vs DMSO control (72 h) (fraction); higher = more viable cells
A204 = system: A204
Method in brief: (§1)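 Sarcoma cell lines were seeded in 384-well plates at densities chosen for 80–90% confluence, then 24 h later given 2.5 µl of serially diluted compound drawn from source plates spanning 10 mM to 0.0002 mM. They were held 72 h at 37 °C, 5% CO2, with 0.1% DMSO vehicle and a 5 µM positive control included. Relative viability was read with ATPLite as percent growth and averaged over up to triplicate wells. Rescaling placed full at 1 and none at 0.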

G401 = system: G401
Method in brief: as §1

HT1080 = system: HT1080
Method in brief: as §1

KHOS-240S = system: KHOS-240S
Method in brief: as §1

KHOS-NP = system: KHOS-NP
Method in brief: as §1

RD-ES = system: RD-ES
Method in brief: as §1

SK-ES-1 = system: SK-ES-1
Method in brief: as §1

SW1353 = system: SW1353
Method in brief: as §1

SW684 = system: SW684
Method in brief: as §1

SW872 = system: SW872
Method in brief: as §1

SW982 = system: SW982
Method in brief: as §1

SYO-1 = system: SYO-1
Method in brief: as §1

C[C@H]1Oc2cc(cnc2N)-c2c(nn(C)c2C#N)CN(C)C(=O)c2ccc(F)cc21 [Lorlatinib]
Details | relative viability
A204, 0.00017 µM | 1.08
A204, 0.00051 µM | 1.11
A204, 0.00152 µM | 1.1
A204, 0.00457 µM | 1.13
A204, 0.01372 µM | 1.1
A204, 0.04115 µM | 1.07
A204, 0.1235 µM | 1.05
A204, 0.3704 µM | 1.05
A204, 1.111 µM | 1.01
A204, 3.333 µM | 0.981
A204, 10 µM | 0.988
G401, 0.00017 µM | 1.05
G401, 0.00051 µM | 1.05
G401, 0.00152 µM | 1.04
G401, 0.00457 µM | 1.03
G401, 0.01372 µM | 1.06
G401, 0.04115 µM | 1.02
G401, 0.1235 µM | 0.968
G401, 0.3704 µM | 0.984
G401, 1.111 µM | 1
G401, 3.333 µM | 1.01
G401, 10 µM | 0.916
HT1080, 0.00017 µM | 1.09
HT1080, 0.00051 µM | 1.08
HT1080, 0.00152 µM | 1.09
HT1080, 0.00457 µM | 1.1
HT1080, 0.01372 µM | 1.08
HT1080, 0.04115 µM | 1.03
HT1080, 0.1235 µM | 1.07
HT1080, 0.3704 µM | 1.09
HT1080, 1.111 µM | 1.03
HT1080, 3.333 µM | 1.09
HT1080, 10 µM | 1.05
KHOS-240S, 0.00017 µM | 1.06
KHOS-240S, 0.00051 µM | 1.08
KHOS-240S, 0.00152 µM | 1.07
KHOS-240S, 0.00457 µM | 1.07
KHOS-240S, 0.01372 µM | 1.06
KHOS-240S, 0.04115 µM | 1.01
KHOS-240S, 0.1235 µM | 1.01
KHOS-240S, 0.3704 µM | 1.01
KHOS-240S, 1.111 µM | 0.969
KHOS-240S, 3.333 µM | 0.915
KHOS-240S, 10 µM | 0.865
KHOS-NP, 0.00017 µM | 1.09
KHOS-NP, 0.00051 µM | 1.091
KHOS-NP, 0.00152 µM | 1.09
KHOS-NP, 0.00457 µM | 1.07
KHOS-NP, 0.01372 µM | 1.07
KHOS-NP, 0.04115 µM | 1.06
KHOS-NP, 0.1235 µM | 1.02
KHOS-NP, 0.3704 µM | 1.07
KHOS-NP, 1.111 µM | 0.999
KHOS-NP, 3.333 µM | 1.02
KHOS-NP, 10 µM | 0.954
RD-ES, 0.00017 µM | 0.973
RD-ES, 0.00051 µM | 0.96
RD-ES, 0.00152 µM | 0.972
RD-ES, 0.00457 µM | 0.978
RD-ES, 0.01372 µM | 0.969
RD-ES, 0.04115 µM | 0.9601
RD-ES, 0.1235 µM | 0.965
RD-ES, 0.3704 µM | 0.891
RD-ES, 1.111 µM | 0.861
RD-ES, 3.333 µM | 0.74
RD-ES, 10 µM | 0.499
SK-ES-1, 0.00017 µM | 1.02
SK-ES-1, 0.00051 µM | 1.03
SK-ES-1, 0.00152 µM | 1.06
SK-ES-1, 0.00457 µM | 1.05
SK-ES-1, 0.01372 µM | 1.01
SK-ES-1, 0.04115 µM | 1.01
SK-ES-1, 0.1235 µM | 1.023
SK-ES-1, 0.3704 µM | 1.03
SK-ES-1, 1.111 µM | 1
SK-ES-1, 3.333 µM | 0.89
SK-ES-1, 10 µM | 0.571
SW684, 0.00017 µM | 1.13
SW684, 0.00051 µM | 1.2
SW684, 0.00152 µM | 1.17
SW684, 0.00457 µM | 1.17
SW684, 0.01372 µM | 1.17
SW684, 0.04115 µM | 1.185
SW684, 0.1235 µM | 1.15
SW684, 0.3704 µM | 1.09
SW684, 1.111 µM | 1.14
SW684, 3.333 µM | 1.12
SW684, 10 µM | 1.12
SW872, 0.00017 µM | 1.08
SW872, 0.00051 µM | 1.05
SW872, 0.00152 µM | 1.04
SW872, 0.00457 µM | 1.04
SW872, 0.01372 µM | 1
SW872, 0.04115 µM | 0.956
SW872, 0.1235 µM | 0.921
SW872, 0.3704 µM | 0.838
SW872, 1.111 µM | 0.798
SW872, 3.333 µM | 0.718
SW872, 10 µM | 0.658
SW982, 0.00017 µM | 1.012
SW982, 0.00051 µM | 1.04
SW982, 0.00152 µM | 1.02
SW982, 0.00457 µM | 1.04
SW982, 0.01372 µM | 1.03
SW982, 0.04115 µM | 1.03
SW982, 0.1235 µM | 0.895
SW982, 0.3704 µM | 0.826
SW982, 1.111 µM | 0.762
SW982, 3.333 µM | 0.768
SW982, 10 µM | 0.64
SW1353, 0.00017 µM | 1.04
SW1353, 0.00051 µM | 1.06
SW1353, 0.00152 µM | 1.027
SW1353, 0.00457 µM | 0.992
SW1353, 0.01372 µM | 0.985
SW1353, 0.04115 µM | 1
SW1353, 0.1235 µM | 0.976
SW1353, 0.3704 µM | 0.889
SW1353, 1.111 µM | 0.851
SW1353, 3.333 µM | 0.839
SW1353, 10 µM | 0.792
SYO-1, 0.00017 µM | 0.99
SYO-1, 0.00051 µM | 0.982
SYO-1, 0.00152 µM | 0.985
SYO-1, 0.00457 µM | 0.966
SYO-1, 0.01372 µM | 0.966
SYO-1, 0.04115 µM | 0.921
SYO-1, 0.1235 µM | 0.873
SYO-1, 0.3704 µM | 0.844
SYO-1, 1.111 µM | 0.768
SYO-1, 3.333 µM | 0.737
SYO-1, 10 µM | 0.66

From the supplement of paper PMC10883282
